In patent publication US7033999B2, “Nitrosated and nitrosylated heme proteins” (Brigham and Women's Hospital, priority 1991, dated 2006):
Each block holds one compound with its values, some of them ahead of it.

Assays:
[1] = clinically used comparator; cited from earlier work
[2] = Stability of S-nitroso-albumin in the presence of oxygen and redox metals; assay type: physicochemical; details: Cu^+, Fe^2+, or Cu^2+ (50 μM) or defuroxamine or EDTA (10 μM)
Experimental: The stability of S-nitroso-albumin in the presence of oxygen and redox metals was assessed.
In addition, S-nitroso-protein stability was assessed in the presence of various redox metals or chelating agents.

human airways [3] = assay: Bronchodilatory effect in human airways contracted with methacholine; assay type: cell-based
Text: (§1) Male Hartley guinea pigs (500–600 g) were anesthetized by inhalation of enflurane to achieve a surgical plane of anesthesia. The trachea were excised and placed in Kreb's-Hanseleit buffer (mM); NaCl 118, KCl 5.4, NaH2PO4 1.01, glucose 11.1, NaHCO3 25.0, MgSO4 0.69, CaCl 2.32, pH 7.4. The airways were then dissected free from surrounding fat and connective tissue and cut into rings 2–4 mm in diameter. The trachea rings were placed in sterile Medium 199 containing 1% antibiotic/antimycotic mixture in an atmosphere of 5% CO2, […], 55% N2 and kept for up to 48 hours in tissue culture. The experiments were also performed on human airways isolated by the same method.
(§2) Trachea rings were mounted on stirrups and connected to transducers (model FTO3C Grass), by which changes in isometric tension were measured. Rings were then suspended in 10 cc of oxygenated (95% O2, 5% CO2) buffer. Airway rings were equilibrated for 60 minutes under a load of 1 gm and then primed twice by exposure to 100 μM methacholine. The rings were contracted with various agonists at concentrations determined to generate 50% (±16% S.D.) of maximum tone, after which the effect of S—NO-BSA was assessed. In selected experiments, relaxation responses were determined in the presence of hemoglobin, or after rings had been preexposed to methylene blue for 30 minutes.
(§3) The effect of guanylate cyclase inhibitors upon S-nitroso-protein-induced airway relaxation and cGMP increase was assessed, using the previously described bioassay and cyclic nucleotide assay procedures. The bronchodilatory effect of S-nitroso-albumin was examined in human airways (5–12 mm outer diameter).

human airways [4] = assay: Airway cGMP levels; assay type: cell-based; details: 100 μM
Experimental: as §3

[5] = system: endothelium-denuded rabbit aortic strips; assay: Vessel relaxation bioassay; assay type: cell-based
Experimental: New Zealand White female rabbits weighing 3–4 kg were anesthetized with 30 mg/kg IV sodium pentobarbital. Descending thoracic aortae were isolated and placed immediately in a cold physiologic salt solution (Kreb's) (mM): NaCl, 118; CKl, 4.7; CaCl2, 2.5; MgSO4, 1.2; KH2PO4, 1.2; NaHCO3, 12.5; and D-glucose, 11.0. The vessels were cleaned of adherent connective tissue, and the endothelium removed by gentle rubbing with a cotton tipped applicator inserted into the lumen, after which the vessel was cut into 5 mm rings. The rings were mounted on stirrups and connected to transducers (model FT03C Grass Instruments, Quincy, Mass.) by which changes in isometric tension were recorded.
Samples were added to a standard bioassay in which vessel rings were suspended in glass chambers containing seven mil of oxygenated Kreb's buffer, in a standard bioassay (Cook et al., Am. J. Physiol. 28:H804 (1989), herein incorporated by reference). Sustained contractions, to 2 gm tension, were induced with 1 μM epinephrine, after which the effects of t-PA and S—NO-t-PA were tested. In certain experiments the guanylate cyclase inhibitor, methylene blue, was preincubated with vessel rings for 15 minutes prior to initiation of contractions.
The vasodilatory actions of S-nitroso-BSA were examined in a standard bioassay containing endothelium-denuded rabbit aortic strips in Kreb's buffer, pH 7.5, at 37°, as described in Example 6.
In vessel experiments, relaxations to S—NO-BSA are expressed as-percent of tone induced by 1.0 μM norepinephrine.

[6] = Canine model of subtotal coronary artery occlusion; assay type: in vivo, dog
Text: (§4) These extremely potent, but reversible anti-platelet properties in vivo are unmatched by classic nitrates. […] As shown in FIGS. 12–14, the constellation of anti-platelet effect, long duration of action, and increased coronary blood flow, is unmatched by other nitroso-compounds. Thus, S-nitroso-proteins have very unique hemodynamic and bioactive profiles.

[7] = Infusion into anesthetized dogs (blood pressure, coronary flow); assay type: in vivo, dog
Text: as §4

[8] = system: RFL-6 lung fibroblasts containing a soluble guanylate cyclase; assay: Cyclic GMP in cultured RFL-6 lung fibroblasts; assay type: cell-based
Experimental: Consonant with the mechanism of other nitro(so)-vasodilators (Ignarro, L. J. Circ. Res. 65:1 (1989)), relaxations were abolished by methylene blue, an inhibitor of guanylate cyclase (FIG. 11a). This mechanism was confirmed by showing that S-nitroso-BSA (18 μM) induces 3.5-fold increases (n=2) in cyclic GMP over basal levels relative to BSA alone in cultured RFL-6 lung fibroblasts containing a soluble guanylate cyclase exquisitely sensitive to NO (Forstermann et al., Mol. Pharmacol. 38:7 (1990)). Stimulation of guanylate cyclase by S-nitroso-BSA was attenuated by methylene blue.

gel-filtered platelets [9] = assay: Platelet aggregation (nephelometric aggregometry); assay type: cell-based, human
Experimental: Venous blood, anticoagulated with 1-mM trisodium citrate, was obtained from volunteers who had not consumed acetylsalicylic acid for at least ten days. Platelet-rich plasma (PRP) was prepared by centrifugation at 150 g for ten minutes at 25° C. Platelet counts were determined with a Coulter counter (model ZM; Coulter Electronics, Hialeah, Fla.).
Platelets were gel-filtered on a 4× 10 cm column of Sepharose 2B in Tyrode's Hepes buffer as described previously (Hawiger et al., Nature 2831:195–198 (1980), herein incorporated by reference). Platelets were typically suspended at a concentration of 1.5×10^8/ml and were used within 30 minutes of preparation. Platelet aggregation was monitored using a standard nephelometric technique (Born, et al., J. Physiol. 168:178–195 (1963), herein incorporated by reference), in which 0.3-ml aliquots of gel-filtered platelets were incubated at 37° C. and stirred at 1000 rpm in a PAP-4 aggregometer (Biodata, Hatboro, Pa.). Gel-filtered platelets were preincubated with t-PA or S—NO-t-PA for up to 45 minutes and aggregations induced with 5 μM ADP or 0.025 U/ml thrombin.
Aggregations were quantified by measuring the maximal rate or extent of light transmittance and expressed as a normalized value relative to control aggregations.
The effect of S-nitroso-BSA on platelet aggregation was studied, using a gel-filtered platelet preparation, as previously described (Hawiger et al., Nature 2831:195 (1980)) and suspended at 150,000 platelets/ul in HEPES buffer, pH 7.35. S—NO-BSA was incubated with platelets for ten minutes at 37° C. in a PAP-4 aggregometer (BioData, Hatboro, Pa.), after which aggregations were induced with 5 μM ADP. Aggregations were quantified by measuring the extent of change of light transmittance and expressed as a normalized value relative to control aggregations.

gel-filtered platelets [10] = assay: Platelet aggregation (nephelometric aggregometry); assay type: cell-based, human; remark: listed apart in the source
trachea rings = assay: Airway smooth muscle relaxation, trachea rings; assay type: cell-based, guinea pig
Text: as §1, §2

hemoglobin = hemoglobin (Bos taurus, UniProt P01966+P02070); details: for reaction at the redox metal (iron-binding site) of hemoglobin: UV spectrum, SNOAC over 15 minutes
Chain of hemoglobin (P01966 2-142): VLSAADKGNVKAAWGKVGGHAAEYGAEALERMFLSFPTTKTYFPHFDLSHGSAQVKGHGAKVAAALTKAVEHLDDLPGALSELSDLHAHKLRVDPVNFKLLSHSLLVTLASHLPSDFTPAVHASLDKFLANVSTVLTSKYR
Chain of hemoglobin (P02070 whole entry): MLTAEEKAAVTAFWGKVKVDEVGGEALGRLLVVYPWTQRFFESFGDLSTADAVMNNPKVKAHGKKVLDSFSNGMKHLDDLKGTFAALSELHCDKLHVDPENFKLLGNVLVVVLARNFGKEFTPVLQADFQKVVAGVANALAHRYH

[11] = Hemoglobin-oxygen association curve; details: S-nitrosylation of hemoglobin
Text: Thus, the reaction between S-nitrosothiols and hemoglobin not only eliminates the inhibition of oxygen binding which occurs from the reaction with uncharged NO and generation of methemoglobin, but it actually increases oxygen binding.

[12] = acidified NaNO2, NO gas or EDRF from endothelial cells

Compound: nitroprusside
effect on coronary flow [1]: deleterious effects on coronary flow

IC50 (human airways [3]; rings contracted with methacholine (7 μM), read-out: IC50 of airway relaxation): 22 µM
Compound: S-nitroso-albumin: S-nitrosylated albumin used in Examples 17 and 18; likely the same as S-nitroso-BSA
decomposition in presence of redox metals or chelating agents [2]: resistant to decomposition | effect of hemoglobin on airway relaxation (human airways [3]; hemoglobin (100 μM)): little effect | airway relaxation in presence of methylene blue or LY83583 (human airways [3]; methylene blue (10^−4) or LY83583 (5×10^−5)): not significantly inhibited | airway cGMP levels (human airways [4]): increases over control

Compound: NO-BSA: BSA loaded with NO at a ratio of 20:1 in 0.5 N HCl (Example 14)
vessel relaxation with increasing concentrations of NO loaded ([5]; BSA loaded with NO as in Example 14): increase in vessel relaxation

increases in cyclic GMP over basal levels relative to BSA alone ([8]; 18 μM, n=2): 3.5 fold | stimulation of guanylate cyclase in presence of methylene blue ([8]; methylene blue): attenuated
Compound: S-nitroso-BSA: S-nitrosylated bovine serum albumin
bleeding times [6]: significantly prolonged | platelet-dependent cyclic thrombus formation [6]: inhibited | blood pressure [7]: prolonged decreases in blood pressure | coronary flow [7]: increased coronary flow | platelet inhibitory potency by method of synthesis (gel-filtered platelets [9]; [12]): essentially equipotent | platelet inhibitory effect in platelet-rich plasma and whole blood (gel-filtered platelets [10]; 1.4 μM, impedance aggregometry for whole blood): confirmed | relaxation of airway smooth muscle (trachea rings; 0.01 μM): 50% | relaxation of airway smooth muscle (trachea rings; 10 μM): over 75% | vasorelaxant potency by method of synthesis [5, 12]: essentially equipotent | character of relaxation response ([5]; compared with EDRF, NO, low molecular weight S-nitrosothiols): less rapid, but much more persistent, relaxation response

Compound: [N]=O [NO, nitric oxide, reference compound]
normalized extent of aggregation (gel-filtered platelets [9]; NO generated from NaNO2 (150 nM), n=5): 0.98±0.11 | effect on the extent of platelet aggregation (gel-filtered platelets [9]; NOx generated from NaNO2): no significant effect | reaction at the redox metal (iron-binding site) of hemoglobin (hemoglobin): reacted instantaneously | % Relaxation ([5]; 150 nM, contraction with 1 μM epinephrine, mean ±S.D., n=4): 1.0 ± 1.7%

Compound: S-nitroso-hemoglobin: derived from the nitrosylation of hemoglobin
hemoglobin-oxygen association curve [11]: leftward shift | formation of methemoglobin (hemoglobin): does not result in the formation of methemoglobin

reaction at the redox metal (iron-binding site) of hemoglobin (hemoglobin): no reaction
Compound: CC(=O)N[C@@H](CSN=O)C(=O)O [SNOAC, S-nitroso-N-acetylcysteine]

Compound: O=N[O-].[Na+] [NaNO2, Sodium nitrite, reference compound]
effect on platelet aggregation (sentence negated: neither ... had) (gel-filtered platelets [10]; concentrations up to 15 μM): any significant effect | effect on vessel tone (sentence negated: neither ... had) ([5]; concentrations up to 15 μM): any significant effect
